Data set [1] relates to plasma protein. Description: Plasma protein binding. Particulars: in animals and humans. It counts as in vitro ADME.
The test system of data set [2] is Ba/F3 cells (WT, FLT3 WT, FLT3-ITD, D835Y). Description: Annexin V-PI apoptosis/cell death assay, four Ba/F3 cell lines. It counts as cell-based, Murine. From the text:
Murine pro-B lymphocyte line Ba/F3 wild type (Ba/F3 WT), and Ba/F3 lines stably transduced with expression vectors that encoded wild-type human FLT3 (Ba/F3 FLT3 WT cells) or human FLT3 containing an ITD mutation (Ba/F3-ITD cells) or D835Y (Ba/F3 D835Y cells) point mutations, which lead to constitutively functional activation of the protein, were obtained from Bjørn Tore Gjertsen (Department of Clinical Science, Hematology Section, University of Bergen, Bergen, Norway). Ba/F3 WT, Ba/F3 FLT3 WT and Ba/F3 835Y cells were maintained in RPMI-1640 medium, containing 10% fetal calf serum (FCS, HyClone, Logan, UT), 2 mM L-glutamine and 50 U/mL penicillin-streptomycin (Sigma-Aldrich, Inc, St Louis, Mo., USA), and 10% WEHI-3B conditioned medium as a source of murine interleukin-3 (mIL-3). […]
Quantification of apoptotic and necrotic cells was determined by measuring externalization of phosphatidylserine with annexin V, conjugated to Alexa® Fluor 647 (Invitrogen, Molecular Probes, OR, USA) and using propidium iodide (PI; Sigma-Aldrich) as a dead-cell counterstain. […] After drug treatment cells were stained according the manufacturer's protocol, and subsequently analysed on an Accuri C6 flow cytometer (Becton Dickinson Immunocytometry Systems, San Jose, Calif., USA). […] The percent viable cells are expressed as percentage of untreated cells, performed in a single experiment.

For data set [3], the target named is c-Kit (D816V) (Homo sapiens, UniProt P10721, D816V). Nature of the data set: KinaseProfiler kinase activity assay. The class given is biochemical. Set-up: purchased EMD Millipore Corp. (KinaseProfiler service).
Description: (§4) KinaseProfiler™ assays (EMD Millipore Corp. Billerica, Mass., USA) are radioligand binding assays with purified or partially-purified human kinases. Most of the KinaseProfiler™ assays are conducted in 20 mM MOPS, 1 mM EDTA, 0.01% Brij-35, 5% Glycerol, 0.1% b-mercaptoethanol, 1 mg/mL BSA. The assay involves the transfer of ^32P from γ-^32P-ATP to the target peptide, followed by washing and trapping of the labeled peptide on a filter. The concentration of γ-^32P-ATP used was at the established Km for ATP.
Data set [4] has as its system Ba/F3 cells expressing T315I mutated Bcr-Abl1 fusion protein. Nature of the data set: WST-1 cell viability, Ba/F3 cells expressing Bcr-Abl1 T315I. As to conditions: Mus musculus, BaF3, 48 hours, serum free, read-out: IB50 cell viability. The class given is cell-based. The method, then: Ba/F3 cells either stably overexpressing Bcr-Abl1 (A) or the mutant Bcr-Abl1 T315I (B) were cultured overnight in serum free RPMI-1640 media supplemented with 2 mM glutamine, 100 U/mL penicillin and 100 μg/mL streptomycin (Sigma-Aldrich). The following day, cells were plated in a 96-well plate with each well containing 2000 cells in a volume of 100 μl serum free RMPI media. […] The 96 well plates were incubated for 48 hours, and cell viability was measured in a WST-1 assay (Roche). Briefly, 5 μl WST-1 solution was added to each well and the 96-well plate was incubated for another 2 hours. The readout was performed in an ELSA reader at 480 nm. (measure)/620 nm (reference). Subsequent data analysis was performed with Microsoft Excel 2003 and GraphPad Prism 4.0.

Data set [5] concerns BaF3/T315I cells. Description: Subcutaneous BaF3/T315I tumor model. The class given is in vivo. Particulars: 25 (or 50) mg/kg twice per day via gavage; NSG mice. The protocol: 6- to 8-week-old male NSG mice were implanted subcutaneously with 1×10^7 BaF3/wt-BCR-ABL or 1×10^7 BaF3/T315I cells per mouse into the right flank. Five days after implantation mice were randomized into groups with a mean volume of approximately 100 mm^3. […] Tumor volume was measured every 2-3 days. Animals were sacrificed at day 12 and tumors embedded for histology.

In data set [6] the test system is Flt3 mutations D835H, D835Y, K663Q, and A829P. Description: Inhibition of Flt3 mutations (biochemical assays, format not stated). From the text: (§1) A summary is provided below.
The target in data set [7] is Abl (Homo sapiens, UniProt P00519). Description: KinaseProfiler kinase activity assay. The class given is biochemical. As to conditions: Abl wild-type; ATP at Km. From the text: (§2) Detailed assay methodologies can be found in the relevant references cited herein, or in the KinaseProfiler Service Assay Protocols (v54, 2011) available from EMD Millipore (www.emdmillipore.com), or from the KinomeScan website (www.kinomescan.com), as appropriate. (For a more detailed description of KINOMEscan's assay technology, see: Fabian et al. A small molecule-kinase interaction map for clinical kinase inhibitors. Nat. Biotechnol. 23, 329-336 (2005)). A summary is provided below.
KinaseProfiler™ assays (EMD Millipore Corp. Billerica, Mass., USA) are […] with purified or partially-purified human kinases. Most of the KinaseProfiler™ assays are conducted in 20 mM MOPS, 1 mM EDTA, 0.01% Brij-35, 5% Glycerol, 0.1% b-mercaptoethanol, 1 mg/mL BSA. The assay involves the transfer of ^32P from γ-^32P-ATP to the target peptide, followed by washing and trapping of the labeled peptide on a filter. The concentration of γ-^32P-ATP used was at the established Km for ATP.

The target of data set [8] is T1, c-Kit (V654A) (Homo sapiens, UniProt P10721, V654A).
T1 construct: purchased EMD Millipore Corp. (KinaseProfiler service)
Description: KinaseProfiler kinase activity assay. It counts as biochemical.
Description: as §4

Data set [9] concerns the target T2, c-Kit (V560G) (Homo sapiens, UniProt P10721, V560G).
T2 construct: purchased EMD Millipore Corp. (KinaseProfiler service)
Nature of the data set: KinaseProfiler kinase activity assay. It counts as biochemical.
Description: as §4

Data set [10] deals with Ret (Homo sapiens, UniProt P07949). Description: KinaseProfiler kinase activity assay. Particulars: ATP at Km. The class given is biochemical. Further details: purchased EMD Millipore Corp. (KinaseProfiler service).
Source text: as §1

For data set [11], the target named is T3, Ysk4 (Homo sapiens, UniProt Q56UN5).
T3 construct: purchased DiscoveRx Corporation (KinomeScan service)
Nature of the data set: KinomeScan competition binding assay.
Source text: as §2
(§3) KinomeScan™ assays (DiscoveRx Corporation, San Diego, Calif., USA) are active-site-directed competition binding assays. […] The amount of kinase captured in test versus control samples is determined by using a qPCR method that detects the associated DNA label on each kinase molecule. Dissociation constants (Kd) for test compound-kinase interactions are calculated by measuring the amount of kinase captured on the solid support as a function of the test compound concentration.

The target of data set [12] is T4, Ret (M918T) (Homo sapiens, UniProt P07949, M918T).
T4 construct: purchased DiscoveRx Corporation (KinomeScan service)
Description: KinomeScan competition binding assay.
Source text: as §2, §3

Data set [13] concerns the target T5, Flt3 (D835H) (Homo sapiens, UniProt P36888, D835H).
T5 construct: purchased DiscoveRx Corporation (KinomeScan service)
Nature of the data set: KinomeScan competition binding assay.
Source text: as §2, §3

We go through 1 compound from patent US9801880B2, “Use of kinase inhibitors” (BerGenBio AS, priority 2013, dated 2017).

Several values for one entry are separate records, joined by “and”; a condition that tells them apart may be missing. Equal entries are not always repeated.

As a reminder, the Kd is a measure of binding affinity in units of concentration. Read a low Kd as higher affinity.

Chain of Ret (P07949 29-1114): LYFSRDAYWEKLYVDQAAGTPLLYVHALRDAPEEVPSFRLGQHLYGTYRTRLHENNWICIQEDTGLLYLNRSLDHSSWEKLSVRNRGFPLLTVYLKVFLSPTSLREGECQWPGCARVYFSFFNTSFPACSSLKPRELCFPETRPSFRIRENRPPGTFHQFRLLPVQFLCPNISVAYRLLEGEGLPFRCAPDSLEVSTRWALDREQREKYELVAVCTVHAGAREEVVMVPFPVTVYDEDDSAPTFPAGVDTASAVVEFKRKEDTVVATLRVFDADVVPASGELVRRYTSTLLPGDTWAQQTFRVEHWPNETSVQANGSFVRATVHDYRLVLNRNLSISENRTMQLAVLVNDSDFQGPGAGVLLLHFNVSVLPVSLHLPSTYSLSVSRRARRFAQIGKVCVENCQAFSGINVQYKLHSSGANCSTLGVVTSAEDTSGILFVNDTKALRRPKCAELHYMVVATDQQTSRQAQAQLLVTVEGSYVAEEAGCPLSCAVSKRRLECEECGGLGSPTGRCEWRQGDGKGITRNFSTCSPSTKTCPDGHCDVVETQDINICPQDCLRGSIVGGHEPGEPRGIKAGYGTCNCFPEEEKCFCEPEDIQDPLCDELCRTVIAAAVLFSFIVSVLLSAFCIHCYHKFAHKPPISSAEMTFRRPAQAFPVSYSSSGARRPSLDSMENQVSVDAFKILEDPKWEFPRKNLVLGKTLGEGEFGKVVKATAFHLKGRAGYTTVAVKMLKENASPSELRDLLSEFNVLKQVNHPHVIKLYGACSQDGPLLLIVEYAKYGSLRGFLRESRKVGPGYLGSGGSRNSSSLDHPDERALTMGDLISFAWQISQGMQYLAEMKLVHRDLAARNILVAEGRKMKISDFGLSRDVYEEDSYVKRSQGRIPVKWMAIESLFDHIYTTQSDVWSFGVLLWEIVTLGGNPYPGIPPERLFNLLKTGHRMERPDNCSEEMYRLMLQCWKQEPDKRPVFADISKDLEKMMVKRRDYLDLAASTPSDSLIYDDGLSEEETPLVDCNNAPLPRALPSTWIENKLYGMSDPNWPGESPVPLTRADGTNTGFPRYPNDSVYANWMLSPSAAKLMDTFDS
T2 sequence (P10721 26-976 V560G): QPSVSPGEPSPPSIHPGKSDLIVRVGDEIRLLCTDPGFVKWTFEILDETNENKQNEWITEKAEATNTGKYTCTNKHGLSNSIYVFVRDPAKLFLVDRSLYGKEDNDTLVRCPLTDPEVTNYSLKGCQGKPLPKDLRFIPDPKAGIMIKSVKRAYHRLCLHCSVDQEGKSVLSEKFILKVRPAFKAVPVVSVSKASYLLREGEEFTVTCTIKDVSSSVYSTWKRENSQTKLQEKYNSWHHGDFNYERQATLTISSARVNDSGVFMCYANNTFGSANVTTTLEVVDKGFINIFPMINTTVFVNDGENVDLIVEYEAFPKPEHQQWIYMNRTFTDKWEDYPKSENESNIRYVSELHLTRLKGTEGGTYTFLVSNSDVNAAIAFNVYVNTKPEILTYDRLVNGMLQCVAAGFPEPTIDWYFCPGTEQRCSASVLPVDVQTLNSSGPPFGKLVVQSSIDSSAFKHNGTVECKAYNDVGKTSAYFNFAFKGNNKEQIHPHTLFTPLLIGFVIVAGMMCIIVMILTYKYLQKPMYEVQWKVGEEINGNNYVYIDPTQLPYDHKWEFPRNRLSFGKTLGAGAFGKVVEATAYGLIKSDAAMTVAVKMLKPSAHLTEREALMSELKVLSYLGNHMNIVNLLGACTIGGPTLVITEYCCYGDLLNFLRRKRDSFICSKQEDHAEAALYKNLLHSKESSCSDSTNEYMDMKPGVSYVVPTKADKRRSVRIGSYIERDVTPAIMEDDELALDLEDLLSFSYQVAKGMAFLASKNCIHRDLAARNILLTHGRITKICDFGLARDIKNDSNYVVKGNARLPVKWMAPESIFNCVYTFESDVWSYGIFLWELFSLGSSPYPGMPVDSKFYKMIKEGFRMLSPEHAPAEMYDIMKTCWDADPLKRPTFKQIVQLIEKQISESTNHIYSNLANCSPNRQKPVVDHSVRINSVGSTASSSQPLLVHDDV
Chain of c-Kit (D816V) (P10721 26-976 D816V): as the sequence (P10721 26-976 V560G) above, with G535V, D791V counted along it
T3 sequence (Q56UN5 whole entry): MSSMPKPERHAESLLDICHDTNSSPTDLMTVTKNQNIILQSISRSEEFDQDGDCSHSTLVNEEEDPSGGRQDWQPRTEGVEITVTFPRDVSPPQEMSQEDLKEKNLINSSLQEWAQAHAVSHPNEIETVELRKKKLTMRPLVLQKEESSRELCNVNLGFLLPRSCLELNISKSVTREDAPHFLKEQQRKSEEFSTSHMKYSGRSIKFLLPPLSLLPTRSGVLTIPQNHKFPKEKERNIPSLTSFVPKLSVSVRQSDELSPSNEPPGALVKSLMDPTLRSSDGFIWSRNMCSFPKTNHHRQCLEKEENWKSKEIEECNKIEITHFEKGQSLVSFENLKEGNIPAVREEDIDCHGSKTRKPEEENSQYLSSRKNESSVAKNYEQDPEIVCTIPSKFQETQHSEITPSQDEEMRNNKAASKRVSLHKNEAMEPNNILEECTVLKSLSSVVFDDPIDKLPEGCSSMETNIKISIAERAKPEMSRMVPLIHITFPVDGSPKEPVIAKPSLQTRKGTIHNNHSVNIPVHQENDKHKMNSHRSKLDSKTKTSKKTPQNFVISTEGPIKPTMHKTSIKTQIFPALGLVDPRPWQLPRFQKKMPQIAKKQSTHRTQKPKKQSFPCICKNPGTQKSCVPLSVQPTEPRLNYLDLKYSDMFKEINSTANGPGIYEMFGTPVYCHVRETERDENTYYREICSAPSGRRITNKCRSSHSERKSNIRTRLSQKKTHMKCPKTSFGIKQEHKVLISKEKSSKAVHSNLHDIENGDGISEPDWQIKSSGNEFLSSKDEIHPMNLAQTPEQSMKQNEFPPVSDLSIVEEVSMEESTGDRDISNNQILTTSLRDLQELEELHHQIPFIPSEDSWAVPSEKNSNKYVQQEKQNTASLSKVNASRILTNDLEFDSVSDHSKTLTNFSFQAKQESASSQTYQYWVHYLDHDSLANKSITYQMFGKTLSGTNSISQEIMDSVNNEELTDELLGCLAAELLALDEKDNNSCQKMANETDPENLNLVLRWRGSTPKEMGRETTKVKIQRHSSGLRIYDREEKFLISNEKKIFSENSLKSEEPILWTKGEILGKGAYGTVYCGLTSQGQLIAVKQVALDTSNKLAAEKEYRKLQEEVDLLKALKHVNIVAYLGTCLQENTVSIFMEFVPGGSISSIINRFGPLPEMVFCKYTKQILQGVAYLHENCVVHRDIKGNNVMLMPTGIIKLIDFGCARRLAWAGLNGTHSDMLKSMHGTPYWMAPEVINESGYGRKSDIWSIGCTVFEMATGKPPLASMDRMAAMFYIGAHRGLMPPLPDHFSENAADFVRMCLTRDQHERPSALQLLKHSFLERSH
Chain of Abl (P00519 whole entry): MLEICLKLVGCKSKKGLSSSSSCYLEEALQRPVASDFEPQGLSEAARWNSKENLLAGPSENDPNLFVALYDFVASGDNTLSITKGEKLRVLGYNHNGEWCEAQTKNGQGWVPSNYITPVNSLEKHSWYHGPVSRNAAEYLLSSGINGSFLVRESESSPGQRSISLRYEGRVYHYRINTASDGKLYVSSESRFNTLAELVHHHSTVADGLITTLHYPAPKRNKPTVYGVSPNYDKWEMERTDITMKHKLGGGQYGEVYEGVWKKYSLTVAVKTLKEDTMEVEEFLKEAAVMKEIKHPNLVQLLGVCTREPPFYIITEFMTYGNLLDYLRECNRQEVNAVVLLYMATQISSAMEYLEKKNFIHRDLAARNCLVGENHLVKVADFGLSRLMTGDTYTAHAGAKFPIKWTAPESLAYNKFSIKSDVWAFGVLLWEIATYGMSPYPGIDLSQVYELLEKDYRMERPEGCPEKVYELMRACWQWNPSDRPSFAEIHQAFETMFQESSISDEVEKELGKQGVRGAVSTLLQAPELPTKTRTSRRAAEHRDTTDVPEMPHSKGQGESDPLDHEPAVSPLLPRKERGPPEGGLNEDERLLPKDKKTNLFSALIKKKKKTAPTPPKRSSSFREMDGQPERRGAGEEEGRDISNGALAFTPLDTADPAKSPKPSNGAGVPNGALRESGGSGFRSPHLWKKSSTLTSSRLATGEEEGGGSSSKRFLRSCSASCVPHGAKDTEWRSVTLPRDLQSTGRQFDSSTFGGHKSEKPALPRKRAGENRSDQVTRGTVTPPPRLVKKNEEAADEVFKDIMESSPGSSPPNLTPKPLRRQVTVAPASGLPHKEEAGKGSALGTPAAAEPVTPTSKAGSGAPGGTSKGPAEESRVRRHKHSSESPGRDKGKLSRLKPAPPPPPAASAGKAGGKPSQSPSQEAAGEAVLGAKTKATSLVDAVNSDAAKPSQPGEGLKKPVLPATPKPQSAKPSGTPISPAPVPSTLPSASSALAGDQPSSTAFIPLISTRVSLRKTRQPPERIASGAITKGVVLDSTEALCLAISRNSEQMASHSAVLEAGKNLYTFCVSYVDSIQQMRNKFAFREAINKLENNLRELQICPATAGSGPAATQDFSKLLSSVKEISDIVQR
T1 sequence (P10721 26-976 V654A): as the sequence (P10721 26-976 V560G) above, with G535V, V629A counted along it
T4 sequence (P07949 29-1114 M918T): as the sequence (P07949 29-1114) above, with M890T counted along it

For `Nc1nc(Nc2ccc3c(c2)CC[C@@H](N2CCCC2)CC3)nn1-c1cc2c(nn1)-c1ccccc1CCC2` [Compound A, 1-(6,7-dihydro-5H-benzo[6,7]cyclohepta[1,2-c]pyridazine-3-yl)-N^3-(7-(S)-(pyrrolidin-1-yl)-6,7,8,9-tetrahydro-5H-benzo[7]annulene-2-yl)-1H-1,2,4-triazole-3,5-diamine], in [1], the “binding to plasma protein” value is above 99%. In data set [2] (investigated Ba/F3 cell lines, 48 hours), this compound came in with a therapeutic window of 0.5 to 3 µM. In data set [2] (≧3 μM, all cell lines regardless of FLT3 status), the “induction of apoptosis at higher doses” value was “massive induction of apoptosis”. Moreover, the IC50 is 177 nM in [3]; 570 nM in [4]; 51 nM in [7]; 286 nM in data set [8]; 45 nM in [9]; 38 nM and 22 nM in [10]. Further, the “inhibition of T315I mutated CML in vivo (tumor volume)” value in data set [5] is “potentially inhibits”. The “inhibition range, Flt3 mutations” value in [6] is 8 to 29 nM. In addition, the Kd in data set [11] was 1.6 nM; in [12], 30 nM; in [13], 8.4 nM.
